Measured values as given in US11312719B2, “9-substituted amino triazolo quinazoline derivatives as adenosine receptor antagonists, pharmaceutical compositions and their use” (Merck Sharp & Dohme Corp., priority 2018, dated 2022).
pIC50: −log10 of the molar value.

Key:
human A2A receptors = human A2A receptors (Homo sapiens (Human), UniProt P29274); test: A2A antagonism in cAMP cell-based assay (LANCE cAMP, HEK293); settings: HEK293 cells expressing human A2A receptor
Protocol: (§1) Measurement of A2A and A2B Antagonism in cAMP Cell-Based Assay
(§2) The ability of compounds to antagonize human A2A and A2B adenosine receptors was determined using a kit to measure changes in intracellular cyclic AMP levels (LANCE cAMP 384 Kit, Perkin Elmer, Cat. No. AD0264). HEK293 cells recombinantly expressing either human A2A or A2B receptors, previously frozen in Recovery Medium (Life Technologies, Cat. No. 12648-010) were thawed and diluted into stimulation buffer (HBSS (Hyclone SH 30268.01), 5 mM HEPES (Gibco 15630-106), 200 nM rolipram (Tocris, Cat. No. 0905), and 1.5% (V/v) BSA stabilizer (kit component). The cell suspension was centrifuged at 200×g for 10 min and then resuspended in stimulation buffer, supplemented with a 1:10 000 dilution of Alexa Fluor 647 anti-cAMP antibody, to a density of 6.0×10^5 cells/mL. A Labcyte Echo 550 acoustic dispenser was used to transfer up to 25 nL of test compound dissolved in DMSO into the wells of a dry Optiplate-384 plate (Perkin Elmer, Cat. No. 6008289). All subsequent liquid additions were performed using a multichannel pipettor. Next, 5 μL of the cell suspension was added to the wells of the Optiplate-384 and incubated for 30 min. at 37° C. and 5% CO2 in a humidified environment. After this time 5 μL of either 300 nM or 600 nM adenosine (Sigma Cat. No. A9251) for A2A and A2B respectively was added and incubated for 30 minutes at 37° C. and 5% CO2 in a humidified environment. At this time detection mix was prepared by combining the LANCE Eu-W8044 labeled streptavidin and Biotin-cAMP in detection buffer according to the manufacturers protocol. 10 μL of the detection mix was added to each well of the Optiplate-384 which was covered with a plate seal and incubated under ambient conditions for 2 hours prior to reading the plate using an Envision (Perkin Elmer, Waltham, Mass.) multimode plate reader. Data was normalized by defining minimal effect as stimulation in the presence of 0.25% (v/v) DMSO and maximal effect as stimulation in the presence of 1 μM ZM241385 (Cayman, Cat. No. 1036). Curve fitting of the percent effect data versus the log of compound concentration used a 4-parameter concentration response curve fitting algorithm to calculate IC50 values. Compound concentrations tested were 10,000, 3,333, 1,111, 370.4, 123.4, 41.2, 13.7, 4.6, 1.5 and 0.5 nM with 0.25% residual DMSO.

human A2B receptors = human A2B receptors (Homo sapiens (Human), UniProt P29275); test: A2B antagonism in cAMP cell-based assay (LANCE cAMP, HEK293); settings: HEK293 cells expressing human A2B receptor
Protocol: as §1, §2

Chain of human A2A receptors (P29274 whole entry): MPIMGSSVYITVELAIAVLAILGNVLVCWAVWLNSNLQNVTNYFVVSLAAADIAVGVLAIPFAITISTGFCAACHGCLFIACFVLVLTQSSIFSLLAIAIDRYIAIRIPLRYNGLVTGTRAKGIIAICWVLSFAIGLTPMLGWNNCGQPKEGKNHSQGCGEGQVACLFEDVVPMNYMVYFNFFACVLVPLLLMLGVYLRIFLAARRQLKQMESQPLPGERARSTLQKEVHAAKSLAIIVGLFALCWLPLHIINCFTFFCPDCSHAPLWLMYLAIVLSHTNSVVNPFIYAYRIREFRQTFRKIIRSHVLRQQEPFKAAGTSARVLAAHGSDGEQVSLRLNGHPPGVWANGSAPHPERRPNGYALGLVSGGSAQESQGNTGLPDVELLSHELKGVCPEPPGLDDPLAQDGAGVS
Chain of human A2B receptors (P29275 whole entry): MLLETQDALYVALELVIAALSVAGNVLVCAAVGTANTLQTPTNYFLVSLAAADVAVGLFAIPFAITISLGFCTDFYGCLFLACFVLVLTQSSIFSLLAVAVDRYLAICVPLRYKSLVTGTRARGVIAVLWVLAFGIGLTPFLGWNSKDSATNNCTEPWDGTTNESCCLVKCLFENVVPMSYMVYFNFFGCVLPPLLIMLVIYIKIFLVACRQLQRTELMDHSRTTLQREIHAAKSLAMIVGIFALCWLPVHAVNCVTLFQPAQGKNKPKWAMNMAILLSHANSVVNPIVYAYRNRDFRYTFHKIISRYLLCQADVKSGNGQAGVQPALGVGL

Structure (SMILES) | pIC50 (human A2A receptors) | pIC50 (human A2B receptors) | A2B cAMP % Inh. @10000 nM (human A2B receptors; at 10000 nM)
COc1cc2nc(N)n3nc([C@H]4C[C@@H](C)CN(c5cnn(CC(C)(C)O)c5)C4)nc3c2cc1F (single isomer, unassigned) [Example 158, 1-(4-((3S,5R or 3R,5S)-3-(5-amino-9-fluoro-8-methoxy-[1,2,4]triazolo[1,5-c]quinazolin-2-yl)-5-methylpiperidin-1-yl)-1H-pyrazol-1-yl)-2-methylpropan-2-ol] | 8.96 | 7.48 | 
COc1cc(F)cc2c1nc(N)n1nc(C3CC(C)CN(c4cnn(CC(C)(C)O)c4)C3)nc21 (single isomer, unassigned) [Example 159, 1-(4-((3R,5S or 3S,5R)-3-(5-amino-9-fluoro-7-methoxy-[1,2,4]triazolo[1,5-c]quinazolin-2-yl)-5-methylpiperidin-1-yl)-1H-pyrazol-1-yl)-2-methylpropan-2-ol] | 9.00 | 7.53 | 
COc1cc(F)cc2c1nc(N)n1nc(C3CC(C)CN(c4cnn(CC(C)(C)O)c4)C3)nc21 (single isomer, unassigned) [Example 160, 1-(4-((3S,5R or 3R,5S)-3-(5-amino-9-fluoro-7-methoxy-[1,2,4]triazolo[1,5-c]quinazolin-2-yl)-5-methylpiperidin-1-yl)-1H-pyrazol-1-yl)-2-methylpropan-2-ol] | 8.06 | 6.19 | 
CC1CC(c2nc3c4cc(F)cc(F)c4nc(N)n3n2)CN(c2cnn(CC(C)(C)O)c2)C1 (single isomer, unassigned) [Example 163, 1-(4-((3R,5S or 3S,5R)-3-(5-amino-7,9-difluoro-[1,2,4]triazolo[1,5-c]quinazolin-2-yl)-5-methylpiperidin-1-yl)-1H-pyrazol-1-yl)-2-methylpropan-2-ol] | 7.44 | 5.28 | 
CC1CC(c2nc3c4cc(F)cc(F)c4nc(N)n3n2)CN(c2cnn(CC(C)(C)O)c2)C1 (single isomer, unassigned) [Example 164, 1-(4-((3S,5R or 3R,5S)-3-(5-amino-7,9-difluoro-[1,2,4]triazolo[1,5-c]quinazolin-2-yl)-5-methylpiperidin-1-yl)-1H-pyrazol-1-yl)-2-methylpropan-2-ol] | 8.72 | 7.32 | 
COc1cc(F)cc2c1nc(N)n1nc(C3CC(C)CN(c4cnn(C(C)(C)CO)c4)C3)nc21 (single isomer, unassigned) [Example 165, 2-(4-((3R,5S or 3S,5R)-3-(5-amino-9-fluoro-7-methoxy-[1,2,4]triazolo[1,5-c]quinazolin-2-yl)-5-methylpiperidin-1-yl)-1H-pyrazol-1-yl)-2-methylpropan-1-ol] | 9.10 | 8.19 | 
COc1cc(F)cc2c1nc(N)n1nc(C3CC(C)CN(c4cnn(C(C)(C)CO)c4)C3)nc21 (single isomer, unassigned) [Example 166, 2-(4-((3S,5R or 3R,5S)-3-(5-amino-9-fluoro-7-methoxy-[1,2,4]triazolo[1,5-c]quinazolin-2-yl)-5-methylpiperidin-1-yl)-1H-pyrazol-1-yl)-2-methylpropan-1-ol] | 7.70 | 5.56 | 
Cc1nn(CC(C)(C)O)cc1N1CC(C)CC(c2nc3c4cc(F)cc(F)c4nc(N)n3n2)C1 (single isomer, unassigned) [Example 167, 1-(4-((3R,5S or 3S,5R)-3-(5-amino-7,9-difluoro-[1,2,4]triazolo[1,5-c]quinazolin-2-yl)-5-methylpiperidin-1-yl)-3-methyl-1H-pyrazol-1-yl)-2-methylpropan-2-ol] | 9.22 | 7.34 | 
Cc1nn(CC(C)(C)O)cc1N1CC(C)CC(c2nc3c4cc(F)cc(F)c4nc(N)n3n2)C1 (single isomer, unassigned) [Example 168, 1-(4-((3S,5R or 3R,5S)-3-(5-amino-7,9-difluoro-[1,2,4]triazolo[1,5-c]quinazolin-2-yl)-5-methylpiperidin-1-yl)-3-methyl-1H-pyrazol-1-yl)-2-methylpropan-2-ol] | 7.62 | 5.33 | 
COc1cc2nc(N)n3nc(C4CC(C)CN(c5cn(C(C)(C)CO)nc5C)C4)nc3c2cc1F (single isomer, unassigned) [Example 169, 2-(4-((3S,5S or 3S,5R)-3-(5-amino-9-fluoro-8-methoxy-[1,2,4]triazolo[1,5-c]quinazolin-2-yl)-5-methylpiperidin-1-yl)-3-methyl-1H-pyrazol-1-yl)-2-methylpropan-1-ol] | 7.02 | 5.47 | 
COc1cc2nc(N)n3nc(C4CC(C)CN(c5cn(C(C)(C)CO)nc5C)C4)nc3c2cc1F (single isomer, unassigned) [Example 170, 2-(4-((3S,5R or 3R,5S)-3-(5-amino-9-fluoro-8-methoxy-[1,2,4]triazolo[1,5-c]quinazolin-2-yl)-5-methylpiperidin-1-yl)-3-methyl-1H-pyrazol-1-yl)-2-methylpropan-1-ol] | 9.10 | 7.85 | 
COc1cc2nc(N)n3nc(C4CC(C)CN(c5cnn(C(C)(C)CO)c5)C4)nc3c2cc1F (single isomer, unassigned) [Example 171, 2-(4-((3R,5S or 3S,5R)-3-(5-amino-9-fluoro-8-methoxy-[1,2,4]triazolo[1,5-c]quinazolin-2-yl)-5-methylpiperidin-1-yl)-1H-pyrazol-1-yl)-2-methylpropan-1-ol] | 8.92 | 7.95 | 
COc1cc2nc(N)n3nc(C4CC(C)CN(c5cnn(C(C)(C)CO)c5)C4)nc3c2cc1F (single isomer, unassigned) [Example 172, 2-(4-((3S,5R or 3R,5S)-3-(5-amino-9-fluoro-8-methoxy-[1,2,4]triazolo[1,5-c]quinazolin-2-yl)-5-methylpiperidin-1-yl)-1H-pyrazol-1-yl)-2-methylpropan-1-ol] | 7.22 |  | 14% Inh.
COc1cc(F)cc2c1nc(N)n1nc(C3CC(C)CN(c4cnn(CC(C)(C)O)c4C)C3)nc21 (single isomer, unassigned) [Example 173, 1-(4-((3R,5S or 3S,5R)-3-(5-amino-9-fluoro-7-methoxy-[1,2,4]triazolo[1,5-c]quinazolin-2-yl)-5-methylpiperidin-1-yl)-5-methyl-1H-pyrazol-1-yl)-2-methylpropan-2-ol] | 7.68 | 5.69 | 
COc1cc(F)cc2c1nc(N)n1nc(C3CC(C)CN(c4cnn(CC(C)(C)O)c4C)C3)nc21 (single isomer, unassigned) [Example 174, 1-(4-((3S,5R or 3R,5S)-3-(5-amino-9-fluoro-7-methoxy-[1,2,4]triazolo[1,5-c]quinazolin-2-yl)-5-methylpiperidin-1-yl)-5-methyl-1H-pyrazol-1-yl)-2-methylpropan-2-ol] | 9.22 | 7.51 | 
COc1cc(F)cc2c1nc(N)n1nc(C3CC(C)CN(c4cn(C(C)(C)CO)nc4C)C3)nc21 (single isomer, unassigned) [Example 175, 2-(4-((3R,5S or 3S,5R)-3-(5-amino-9-fluoro-7-methoxy-[1,2,4]triazolo[1,5-c]quinazolin-2-yl)-5-methylpiperidin-1-yl)-3-methyl-1H-pyrazol-1-yl)-2-methylpropan-1-ol] | 7.52 | 5.70 | 
COc1cc(F)cc2c1nc(N)n1nc(C3CC(C)CN(c4cn(C(C)(C)CO)nc4C)C3)nc21 (single isomer, unassigned) [Example 176, 2-(4-((3S,5R or 3R,5S)-3-(5-amino-9-fluoro-7-methoxy-[1,2,4]triazolo[1,5-c]quinazolin-2-yl)-5-methylpiperidin-1-yl)-3-methyl-1H-pyrazol-1-yl)-2-methylpropan-1-ol] | 9.05 | 7.99 | 
Cc1nn(C(C)(C)CO)cc1N1CC(C)CC(c2nc3c4cc(F)cc(F)c4nc(N)n3n2)C1 (single isomer, unassigned) [Example 177, 2-(4-((3R,5S or 3S,5R)-3-(5-amino-7,9-difluoro-[1,2,4]triazolo[1,5-c]quinazolin-2-yl)-5-methylpiperidin-1-yl)-3-methyl-1H-pyrazol-1-yl)-2-methylpropan-1-ol] | 6.81 | 5.40 | 
Cc1nn(C(C)(C)CO)cc1N1CC(C)CC(c2nc3c4cc(F)cc(F)c4nc(N)n3n2)C1 (single isomer, unassigned) [Example 178, 2-(4-((3S,5R or 3R,5S)-3-(5-amino-7,9-difluoro-[1,2,4]triazolo[1,5-c]quinazolin-2-yl)-5-methylpiperidin-1-yl)-3-methyl-1H-pyrazol-1-yl)-2-methylpropan-1-ol] | 9.22 | 7.94 | 
